The values below come from ChEMBL document CHEMBL3797166, “Identification of N-phenyl-2-(N-phenylphenylsulfonamido)acetamides as new RORγ inverse agonists: Virtual screening, structure-based optimization, and biological evaluation” (Eur J Med Chem, 2016).

Each structure is given as a SMILES string. Calls of active or inactive are those of the source. The calls are words filed in the database; no cut-off is given here.

A word on the IC50: it is the concentration at which inhibition is half-maximal. As a reminder, the ΔTm is the shift of the melting midpoint relative to a reference.

For assay [1], the target named is T1, Nuclear receptor ROR-gamma (Homo sapiens, UniProt P51449).
T1 sequence (P51449 whole entry): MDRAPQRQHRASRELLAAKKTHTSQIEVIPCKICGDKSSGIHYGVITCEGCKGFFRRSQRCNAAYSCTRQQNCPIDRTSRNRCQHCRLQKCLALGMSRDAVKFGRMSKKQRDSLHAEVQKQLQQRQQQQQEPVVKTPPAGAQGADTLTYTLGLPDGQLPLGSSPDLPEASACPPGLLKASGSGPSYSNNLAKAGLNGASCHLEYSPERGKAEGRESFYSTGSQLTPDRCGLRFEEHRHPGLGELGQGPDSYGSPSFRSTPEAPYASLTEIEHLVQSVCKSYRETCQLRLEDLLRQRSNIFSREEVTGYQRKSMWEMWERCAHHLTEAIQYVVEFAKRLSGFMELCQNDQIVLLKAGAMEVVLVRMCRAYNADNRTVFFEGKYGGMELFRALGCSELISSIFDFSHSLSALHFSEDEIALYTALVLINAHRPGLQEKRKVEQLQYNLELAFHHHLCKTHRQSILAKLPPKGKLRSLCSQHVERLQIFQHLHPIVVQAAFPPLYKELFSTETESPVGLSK
The assay is described as follows: Displacement of N-terminal biotinylated SRC1-4 coactivator peptide from N-terminal His6-fused human RORgamma-LBD (262 to 507 residues) expressed in Escherichia coli BL21 (DE3) by luminescence-based Alphascreen assay. On the technique in general: Alpha assays give light when donor and acceptor beads are brought close together.

Assay [2] concerns the target T2, Nuclear receptor ROR-gamma (Homo sapiens) (UniProt P51449).
T2 sequence (whole entry): T1 sequence (P51449 whole entry)
Description: Binding affinity to N-terminal His6-fused human RORgamma-LBD (262 to 507 residues) expressed in Escherichia coli BL21 (DE3) assessed as inhibition of thermal stability activity at 200 uM incubated for 30 mins by RT-PCR analysis

The target of assay [3] is T1, Nuclear receptor ROR-gamma. Briefly: Inhibition of Gal4-RORgamma-LBD (180 to 507 residues) (unknown origin) expressed in HEK293T cells after 24 hrs by dual-luciferase reporter assay. The format is cell-based, HEK-293T.

Turning to `Cc1ccc(S(=O)(=O)N(CC(=O)Nc2ccc(C#N)cc2)c2ccc(C(F)(F)F)cc2)cc1`, the figures for the half-inhibitory concentration (IC50) in assay [1] (read-out: IC50) and in assay [3] (read-out: IC50) were 1.07 µM and 0.62 µM, respectively. Further, in assay [2], the ΔTm was 3.05 °C.

Consider `Cc1ccc(S(=O)(=O)N(CC(=O)Nc2ccc(OC(F)(F)F)cc2)c2cccc(C(F)(F)F)c2)cc1`, for which the IC50 result in assay [1] and in assay [3] (hek-293t) was “Not Active” in each case.

For the compound `Cc1ccc(CNC(=O)CN(c2cccc(C(F)(F)F)c2)S(=O)(=O)c2ccc(C)cc2)cc1`, the IC50 result in assay [1] is “Not Active”; in assay [3] (read-out: IC50), 27.2 µM. Further, the ΔTm in assay [2] stood at 1 °C.

As to `Cc1ccc(S(=O)(=O)N(CC(=O)Nc2ccc(C(N)=O)cc2)c2cccc(C(F)(F)F)c2)cc1`, the IC50 in assay [1] (read-out: IC50) turned out to be 35.1 µM; in assay [3] (read-out: IC50), 0.42 µM. Further, the ΔTm in assay [2] stood at 1.9 °C.

Take `Cc1ccc(S(=O)(=O)N(CC(=O)Nc2ccc(C#N)cc2)c2cccc(C(F)(F)F)c2)cc1`: the results for the IC50 in assay [1] (read-out: IC50) and in assay [3] (read-out: IC50) were 0.77 µM and 0.9 µM, respectively. Further, in assay [2], the shift in melting temperature (ΔTm) came out at 3.5 °C.

For the compound `COC(=O)c1ccc(NC(=O)CN(c2cccc(C(F)(F)F)c2)S(=O)(=O)c2ccc(C)cc2)cc1`, the IC50 came out at 11.8 µM in assay [1] (read-out: IC50) and 3.98 µM in assay [3] (read-out: IC50). For the same compound, the ΔTm in assay [2] is 1.15 °C.

`Cc1ccc(S(=O)(=O)N(CC(=O)NC2CCCCC2)c2cccc(C(F)(F)F)c2)cc1`: the IC50 result in assay [1] was “Not Active”; in assay [3] (read-out: IC50) it was 1.03 µM. The ΔTm in assay [2] stood at 0.1 °C.

Regarding `Cc1ccc(S(=O)(=O)N(CC(=O)NCc2ccc(O)cc2)c2cccc(C(F)(F)F)c2)cc1`, the IC50 in assay [1] (read-out: IC50) was found to be 14.7 µM; in assay [3] (read-out: IC50), 22.1 µM. In addition, in assay [2], the ΔTm is 1 °C.

`COC(=O)c1ccc(CNC(=O)CN(c2cccc(C(F)(F)F)c2)S(=O)(=O)c2ccc(C)cc2)cc1`: the IC50 in assay [1] (read-out: IC50) is 67.1 µM; in assay [3] (hek-293t), “Not Active”.

Consider `CC(=O)N1CCN(C(=O)CN(c2cccc(C(F)(F)F)c2)S(=O)(=O)c2ccc(C)cc2)CC1`, for which the IC50 in assay [1] (read-out: IC50) was found to be 175 µM; in assay [3] (read-out: IC50), 10.4 µM. Further, the deltaTm entry in assay [2] is “inactive”.

Take `Cc1ccc(S(=O)(=O)N(CC(=O)NCc2ccncc2)c2cccc(C(F)(F)F)c2)cc1`: the IC50 in assay [1] (read-out: IC50) amounted to 15.2 µM; in assay [3] (read-out: IC50) it was 8.28 µM. Moreover, the ΔTm in assay [2] was determined as 2.2 °C.

Consider `Cc1ccc(S(=O)(=O)N(CC(=O)Nc2cccc(C(=O)O)c2)c2cccc(C(F)(F)F)c2)cc1`, for which the IC50 entry in assay [3] (hek-293t) is reported as “Not Active”.

As to `Cc1ccc(N(CC(=O)Nc2ccc(C#N)cc2)S(=O)(=O)Cc2ccccc2)cc1`, the results for the IC50 in assay [1] (read-out: IC50) and in assay [3] (read-out: IC50) were 36.8 µM and 0.63 µM, respectively. Moreover, the ΔTm in assay [2] came to 1.71 °C.

As to `Cc1ccc(S(=O)(=O)N(CC(=O)Nc2nc(C)cs2)c2cccc(C(F)(F)F)c2)cc1`, the IC50 in assay [1] (read-out: IC50) worked out at 15.8 µM; in assay [3] (read-out: IC50) it was 3.65 µM. The ΔTm in assay [2] came to 0.8 °C.

`Cc1ccc(S(=O)(=O)N(CC(=O)Nc2ccc(O)cc2)c2cccc(C(F)(F)F)c2)cc1`: the IC50 was 13.6 µM in assay [1] (read-out: IC50) and 8.34 µM in assay [3] (read-out: IC50). For the same compound, in assay [2], the ΔTm amounted to 1.6 °C.

Turning to `Cc1ccc(S(=O)(=O)N(CC(=O)Nc2ccc(C#N)cc2)c2ccc(C#N)cc2)cc1`, the IC50 in assay [1] (read-out: IC50) is 65.3 µM; in assay [3] (read-out: IC50), 1.31 µM. In addition, the ΔTm in assay [2] came to 1.71 °C.

Take `Cc1ccc(N(CC(=O)Nc2ccc(C#N)cc2)S(=O)(=O)c2ccc(F)cc2)cc1`: the IC50 in assay [1] (read-out: IC50) worked out at 10.3 µM; in assay [3] (read-out: IC50), 1.45 µM. The ΔTm in assay [2] came to 2.8 °C.

Consider `COC(=O)c1ccccc1NC(=O)CN(c1cccc(C(F)(F)F)c1)S(=O)(=O)c1ccc(C)cc1`, for which the ΔTm in assay [2] was determined as 2.1 °C. Also, the IC50 in assay [3] (read-out: IC50) is 1.39 µM.

In the case of `COc1ccc(NC(=O)CN(c2cccc(C(F)(F)F)c2)S(=O)(=O)c2ccc(C)cc2)cc1OC`, the IC50 in assay [1] (read-out: IC50) amounted to 12.8 µM; in assay [3] (read-out: IC50) it was 2.44 µM. In addition, in assay [2], the ΔTm was 1.3 °C.

As for `COC(=O)c1cccc(NC(=O)CN(c2cccc(C(F)(F)F)c2)S(=O)(=O)c2ccc(C)cc2)c1`, the figures for the IC50 result in assay [1] and in assay [3] (read-out: IC50) were “Not Active” and 6.06 µM, respectively.

Take `Cc1ccc(S(=O)(=O)N(CC(=O)NCc2ccc(F)cc2)c2cccc(C(F)(F)F)c2)cc1`: the IC50 in assay [1] (read-out: IC50) is 13.1 µM; in assay [3] (read-out: IC50), 7.51 µM. The ΔTm in assay [2] worked out at 1.07 °C.

With `Cc1ccc(S(=O)(=O)N(CC(=O)Nc2ccc(C#N)cc2)c2ccc(Cl)c(Cl)c2)cc1`, the values for the IC50 in assay [1] (read-out: IC50) and in assay [3] (read-out: IC50) were 0.22 µM and 0.63 µM, respectively. The ΔTm in assay [2] worked out at 3.5 °C.

Take `Cc1ccc(S(=O)(=O)N(CC(=O)Nc2ccc(C(O)(C(F)(F)F)C(F)(F)F)cc2)c2cccc(C(F)(F)F)c2)cc1`: in assay [1] (read-out: IC50), the IC50 worked out at 112 µM. Further, the ΔTm in assay [2] was determined as 0.5 °C.

Consider `CC(=O)c1ccc(NC(=O)CN(c2cccc(C(F)(F)F)c2)S(=O)(=O)c2ccc(C)cc2)cc1`, for which the values for the IC50 in assay [1] (read-out: IC50) and in assay [3] (read-out: IC50) were 11.3 µM and 0.59 µM, respectively. Besides, in assay [2], the ΔTm was 1.25 °C.

`CCCCCCNC(=O)CN(c1cccc(C(F)(F)F)c1)S(=O)(=O)c1ccc(C)cc1`: the IC50 result in assay [1] and in assay [3] (hek-293t) was “Not Active” in each case.

For `Cc1ccc(S(=O)(=O)N(CC(=O)Nc2ccc(C#N)cc2)c2ccc(F)cc2)cc1`, the IC50 in assay [1] (read-out: IC50) was found to be 36.1 µM; in assay [3] (read-out: IC50), 0.91 µM. Further, the ΔTm in assay [2] was 2.15 °C.

For the compound `Cc1ccc(S(=O)(=O)N(CC(=O)Nc2ccc(OCc3ccccc3)cc2)c2cccc(C(F)(F)F)c2)cc1`, the IC50 in assay [1] (read-out: IC50) is 93.9 µM; in assay [3] (hek-293t), “Not Active”.

For the compound `Cc1ccc(S(=O)(=O)N(CC(=O)Nc2ccc(F)cc2F)c2cccc(C(F)(F)F)c2)cc1`, the figures for the IC50 in assay [1] (read-out: IC50) and in assay [3] (read-out: IC50) were 62.6 µM and 4.54 µM, respectively. For the same compound, in assay [2], the ΔTm amounted to 1.8 °C.

As to `Cc1ccc(S(=O)(=O)N(CC(=O)Nc2ccc(F)cc2)c2cccc(C(F)(F)F)c2)cc1`, the results for the IC50 in assay [1] (read-out: IC50) and in assay [3] (read-out: IC50) were 3.99 µM and 3.37 µM, respectively. Also, the ΔTm in assay [2] was 2.1 °C.

`Cc1ccc(S(=O)(=O)N(CC(=O)O)c2cccc(C(F)(F)F)c2)cc1`: the IC50 worked out at 93.3 µM in assay [1] (read-out: IC50) and 152 µM in assay [3] (read-out: IC50). Further, the deltaTm result in assay [2] is “inactive”.

With `Cc1ccc(N(CC(=O)Nc2ccc(C#N)cc2)S(=O)(=O)Cc2ccc(F)cc2)cc1`, the IC50 came to 25.8 µM in assay [1] (read-out: IC50) and 1.78 µM in assay [3] (read-out: IC50). Further, the ΔTm in assay [2] is 2.5 °C.
